Assay results reported in ChEMBL document CHEMBL1177883, “5D-QSAR for spirocyclic sigma1 receptor ligands by Quasar receptor surface modeling” (Eur J Med Chem, 2010).

Molecular target: Sigma non-opioid intracellular receptor 1 (Cavia porcellus, UniProt Q60492)
Experiment: Displacement of [3H](+)-pentazocine from sigma 1 receptor in guinea pig brain membrane
Format: cell membranes

Chain of Sigma non-opioid intracellular receptor 1 (Q60492 whole entry): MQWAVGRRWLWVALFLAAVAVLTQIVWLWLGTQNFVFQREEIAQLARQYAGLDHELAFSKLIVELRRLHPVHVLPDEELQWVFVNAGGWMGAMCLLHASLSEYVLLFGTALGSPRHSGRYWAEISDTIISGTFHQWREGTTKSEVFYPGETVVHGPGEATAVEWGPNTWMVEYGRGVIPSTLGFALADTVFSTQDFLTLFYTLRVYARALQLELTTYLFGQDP

| Compound | Ki [nM] |
| --- | --- |
| CO[C@H]1Cc2ccccc2C2(CCN(C)CC2)O1 | 4400 |
| c1ccc(CCCN2CCC3(CC2)OCCc2c3cnn2-c2ccccc2)cc1 | 0.81 |
| Cn1ncc2c1CCOC21CCN(CCCc2ccccc2)CC1 | 17 |
| CO[C@H]1Cc2sc(CN(C)C)cc2C2(CCN(Cc3ccccc3)CC2)O1 | 17 |
| OCC[C@H]1Cc2ccccc2C2(CCN(Cc3ccccc3)CC2)O1 | 10 |
| CO[C@H]1Cc2c(cnn2-c2ccccc2)C2(CCN(CC(C)C)CC2)O1 | 6.3 |
| CCOC(=O)C[C@H]1Cc2ccccc2C2(CCN(Cc3ccccc3)CC2)O1 | 183 |
| O[C@H]1Cc2ccccc2C2(CCN(CCc3ccccc3)CC2)O1 | 44 |
| CO[C@H]1Cc2sccc2C2(CCN(Cc3ccccc3)CC2)O1 | 0.32 |
| CO[C@H]1Cc2ccccc2C2(CCN(CCCCc3ccccc3)CC2)O1 | 10 |
| CCCN1CCC2(CC1)O[C@@H](OC)Cc1c2cnn1C | 2980 |
| CC(C)=CCN1CCC2(CC1)OCCc1c2cnn1C | 14 |
| CO[C@H]1Cc2sccc2C2(CCN(CCc3ccccc3)CC2)O1 | 5.9 |
| CO[C@H]1Cc2sccc2C2(CCN(CCCCc3ccccc3)CC2)O1 | 7.7 |
| CO[C@H]1Cc2sc(C(=O)c3ccccc3)cc2C2(CCN(Cc3ccccc3)CC2)O1 | 3.7 |
| CO[C@@H]1Cc2ccccc2[C@@]2(CCCN(CCc3ccccc3)C2)O1 (racemic) | 470 |
| O[C@H]1OC2(CCN(CCc3ccccc3)CC2)c2ccccc21 | 109 |
| OCC[C@H]1Cc2ccccc2C2(CCN(CC3CCCCC3)CC2)O1 | 10 |
| CCCN1CCC2(CC1)O[C@@H](OC)Cc1c2cnn1-c1ccccc1 | 33 |

| Compound | Ki [nM] |
| --- | --- |
| CCCCN1CCC[C@@]2(C1)O[C@H](OC)Cc1ccccc12 (racemic) | 1290 |
| CO[C@@H]1OC2(CCN(Cc3ccccc3)CC2)c2cnn(-c3ccccc3)c21 | 0.49 |
| OCC[C@H]1Cc2ccccc2C2(CCN(CCCc3ccccc3)CC2)O1 | 15 |
| CCOC(=O)C[C@H]1OC2(CCN(Cc3ccccc3)CC2)c2ccccc21 | 15 |
| CO[C@@H]1Cc2ccccc2[C@@]2(CCCN(Cc3ccccc3)C2)O1 (racemic) | 1720 |
| CCC[C@H]1OC2(CCN(Cc3ccccc3)CC2)c2ccccc21 | 3.2 |
| CO[C@H]1CCc2ccccc2C2(CCN(Cc3ccccc3)CC2)O1 | 2.6 |
| CO[C@H]1Cc2sccc2C2(CCN(CC3CCCCC3)CC2)O1 | 0.3 |
| COC(=O)c1cc2c(s1)C[C@H](OC)OC21CCN(Cc2ccccc2)CC1 | 10.9 |
| CO[C@H]1Cc2sc(-c3ccccc3)cc2C2(CCN(Cc3ccco3)CC2)O1 | 2.2 |
| CO[C@H]1Cc2c(cnn2-c2ccccc2)C2(CCN(C(C)C)CC2)O1 | 210 |
| CC(=O)C[C@@H]1Cc2sccc2C2(CCN(Cc3ccccc3)CC2)O1 | 9.4 |
| CO[C@H]1Cc2c(cnn2-c2ccccc2)C2(CCN(Cc3ccccc3)CC2)O1 | 1.5 |
| CO[C@H]1Cc2c(cnn2C)C2(CCN(Cc3ccccc3)CC2)O1 | 21 |
| CO[C@H]1Cc2sccc2C2(CCN(CC=C(C)C)CC2)O1 | 1 |
| CC(=O)C[C@H]1Cc2sccc2C2(CCN(Cc3ccccc3)CC2)O1 | 12 |
| OCC[C@@H]1Cc2ccccc2C2(CCN(CC3CCCCC3)CC2)O1 | 9 |
| OCC[C@@H]1Cc2ccccc2C2(CCN(Cc3ccccc3)CC2)O1 | 48 |
| OCC[C@@H]1Cc2ccccc2C2(CCN(CCCc3ccccc3)CC2)O1 | 68 |
